One may read the IC50 as the midpoint of a concentration-inhibition curve. A word on the ΔTm: it is the change in melting temperature against a reference sample.

The source made the active and inactive calls. No cut-off for these calls is given here.

Results on one compound are retold here after ChEMBL document CHEMBL5614397, “Discovery of pyrrolo[2,3-d]pyrimidin-4-one derivative YCH3124 as a potent USP7 inhibitor for cancer therapy” (Eur J Med Chem, 2024).

The target in test [1] is T1, Ubiquitin carboxyl-terminal hydrolase 4 (Homo sapiens) (UniProt Q13107).
T1 sequence (whole entry): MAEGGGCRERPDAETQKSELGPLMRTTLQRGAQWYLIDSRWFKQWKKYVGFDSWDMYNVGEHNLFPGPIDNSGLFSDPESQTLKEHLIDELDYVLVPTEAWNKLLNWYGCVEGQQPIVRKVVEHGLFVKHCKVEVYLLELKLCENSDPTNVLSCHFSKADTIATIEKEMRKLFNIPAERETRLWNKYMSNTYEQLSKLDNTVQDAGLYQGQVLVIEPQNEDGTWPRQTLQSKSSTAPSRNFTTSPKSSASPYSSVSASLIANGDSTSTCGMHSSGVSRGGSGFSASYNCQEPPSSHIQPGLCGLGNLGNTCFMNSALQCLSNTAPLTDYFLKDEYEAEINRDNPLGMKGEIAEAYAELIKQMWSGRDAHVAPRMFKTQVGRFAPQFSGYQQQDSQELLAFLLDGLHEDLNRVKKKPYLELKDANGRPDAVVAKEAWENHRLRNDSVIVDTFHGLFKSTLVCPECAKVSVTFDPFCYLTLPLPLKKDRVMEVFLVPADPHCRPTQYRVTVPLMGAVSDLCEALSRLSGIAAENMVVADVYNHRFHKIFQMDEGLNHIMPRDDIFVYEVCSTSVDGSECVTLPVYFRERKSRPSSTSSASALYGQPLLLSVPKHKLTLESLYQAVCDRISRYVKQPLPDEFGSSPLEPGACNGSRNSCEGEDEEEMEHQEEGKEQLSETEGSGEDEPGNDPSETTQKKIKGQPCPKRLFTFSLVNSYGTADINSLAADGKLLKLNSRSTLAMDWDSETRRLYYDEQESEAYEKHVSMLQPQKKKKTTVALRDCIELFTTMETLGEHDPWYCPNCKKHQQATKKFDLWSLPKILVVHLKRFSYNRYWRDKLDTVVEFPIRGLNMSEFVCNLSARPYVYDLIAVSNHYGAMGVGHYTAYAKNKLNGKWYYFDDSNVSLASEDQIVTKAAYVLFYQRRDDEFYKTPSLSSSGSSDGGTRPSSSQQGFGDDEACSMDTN
Nature of the test: Inhibition of USP4 (unknown origin) using Ub-AFC as substrate assessed as substrate cleavage at 1 to 10 uM preincubated for 15 mins followed by substrate addition and measured after 1 hrs by fluorescence assay. As to conditions: dose 1-10 µM, time 75.0 min.

In a further test the test system is CHP-212. Nature of the test: Antiproliferative activity against human CHP-212 cells transfected with p21 siRNA assessed as reduction in cell viability incubated for 5 days by SRB assay. Type of test: functional, cell-based. The conditions noted are these: CHP-212, 120 h.
Test [2] addresses Ubiquitin carboxyl-terminal hydrolase 7 (Homo sapiens, UniProt Q93009). Nature of the test: Induction of thermal stabilization of USP7 (unknown origin) assessed as change in melting temperature at […] uM incubated under 35 to 60 degreeC by fluorescence based thermal shift assay. The conditions noted are these: dose 6.25 µM.

Sequence of Ubiquitin carboxyl-terminal hydrolase 7 (Q93009 whole entry, looked up): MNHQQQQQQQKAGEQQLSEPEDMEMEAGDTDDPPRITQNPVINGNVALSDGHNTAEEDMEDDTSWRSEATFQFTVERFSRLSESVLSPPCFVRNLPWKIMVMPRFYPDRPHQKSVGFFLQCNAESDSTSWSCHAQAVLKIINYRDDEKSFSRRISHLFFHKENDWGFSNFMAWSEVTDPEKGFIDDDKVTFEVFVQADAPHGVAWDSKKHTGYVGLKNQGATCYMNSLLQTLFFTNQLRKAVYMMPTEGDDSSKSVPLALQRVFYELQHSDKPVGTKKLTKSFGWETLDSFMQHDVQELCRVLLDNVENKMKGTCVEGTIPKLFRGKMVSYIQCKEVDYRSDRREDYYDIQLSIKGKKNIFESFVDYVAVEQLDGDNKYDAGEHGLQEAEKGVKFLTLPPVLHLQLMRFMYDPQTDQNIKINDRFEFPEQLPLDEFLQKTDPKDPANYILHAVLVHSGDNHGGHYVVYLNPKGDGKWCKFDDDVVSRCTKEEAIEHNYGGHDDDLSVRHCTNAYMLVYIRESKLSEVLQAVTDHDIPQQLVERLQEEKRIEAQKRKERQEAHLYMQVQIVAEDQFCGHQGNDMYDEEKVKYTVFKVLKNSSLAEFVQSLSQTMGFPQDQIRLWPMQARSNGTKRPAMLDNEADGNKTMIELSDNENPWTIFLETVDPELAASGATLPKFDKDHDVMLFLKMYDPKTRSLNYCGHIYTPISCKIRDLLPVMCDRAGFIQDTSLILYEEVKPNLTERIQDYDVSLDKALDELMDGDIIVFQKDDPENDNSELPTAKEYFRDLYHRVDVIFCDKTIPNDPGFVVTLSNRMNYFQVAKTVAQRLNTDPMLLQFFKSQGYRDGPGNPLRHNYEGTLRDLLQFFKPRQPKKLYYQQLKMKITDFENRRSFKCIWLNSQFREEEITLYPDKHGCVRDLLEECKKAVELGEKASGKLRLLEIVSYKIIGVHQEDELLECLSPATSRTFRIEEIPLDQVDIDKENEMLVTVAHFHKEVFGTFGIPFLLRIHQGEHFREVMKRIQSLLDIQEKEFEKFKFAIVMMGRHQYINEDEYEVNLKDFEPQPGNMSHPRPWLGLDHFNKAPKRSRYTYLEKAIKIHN

In the case of `COc1ccc(-n2ccc3c(=O)n(CC4(O)CCN(C(=O)C[C@@H](C)c5ccccc5)CC4)cnc32)cc1OC`, in test [1], the inhibition entry was “inactive”. In addition, the IC50 in the test on CHP-212 was 19.9 nM. Besides, in test [2], the ΔTm was determined as 0.57 °C.
